Test results from patent publication EP4268819A1 (priority 2022, dated 2023).
Like-named read-outs stand apart in the source and are kept apart here.

Experiments:
[1] = tested on: SARS-CoV-2 clinical omicron isolate
[2] = tested on: SARS-CoV-2 clinical omicron isolate; assay: microbe, parasite or virus in culture; details: Severe acute respiratory syndrome coronavirus 2, Calu-3

## COc1[nH]c(=O)c(C(=O)[C@@H](C)C[C@H](C)[C@@H](Cl)CCl)c(O)c1OC [Atpenin A5, atpenin A5]
[1]; SARS-CoV-2 omicron in Calu-3 cells, CC50 by CTG
  Therapeutic range: CC50/IC50 (CTG): CTG: 1.3
[1]; SARS-CoV-2 omicron in Calu-3 cells, CC50 by IncuCyte
  Therapeutic range: CC50/IC50 (IncuCyte): IncuCyte: > 117.6
[1]; SARS-CoV-2 omicron in Calu-3 cells, CC50 by MTT
  Therapeutic range: CC50/IC50 (MTT): MTT: 1.8

## [H]/N=C(/N)N/C(=N/[H])NCCc1ccccc1 [Phenformin]
[1]; human, calu-3 cells
  Therapeutic range: CC50/IC50 (CTG): CTG: 1674
  Therapeutic range: CC50/IC50 (IncuCyte): IncuCyte: 1111
  Therapeutic range: CC50/IC50 (MTT): MTT: 1123
[2]
  IC50: 1350 nM
